Experimental data from patent US20250340911A1, “METHOD FOR PRODUCING FROM FATTY ALCOHOLS MONOMERS FOR PRODUCING VARIOUS SYNTHETIC RESINS” (priority 2022, published 2025).

Tested on: recombinant Candida tropicalis Ct6 strain
Test: Cytotoxicity of synthesized (biomass-derived) dialkyl ethers to recombinant strain, growth by absorbance at 600 nm
Format: cell-based
Conditions: 0-5% ether in YPD medium, 48-well plate, 24 hours or more, ether synthesized in Example 1
Experimental: The cytotoxicity of the dioctyl ether synthesized as described above was analyzed. 200 μl of a mixed solution of YPD medium (10 g/L yeast extract, 20 g/L Bacto peptone, 20 g/L glucose) and each concentration (0, 0.25, 0.5, 1, 2, 3, 4, or 5%) of dioctyl ether was added to each well of a 48-well plate. After 2 μl of a culture of a recombinant Candida tropicalis Ct6 strain cultured overnight in YPD medium at 30° C. and 200 rpm was further added to each well, the absorbance at 600 nm was measured using a plate reader at 30° C. for 24 hours or more at 15-minute intervals. The maximum specific growth rate (μm) and lag time were calculated using the Gompertz growth equation.
The cytotoxicity of the didodecyl ether synthesized as described above was analyzed. 200 μl of a mixed solution of YPD medium and each concentration (0, 0.25, 0.5, 1, 2, 3, 4, or 5%) of didodecyl ether was added to each well of a 48-well plate. After 2 μl of a culture of a recombinant Candida tropicalis Ct6 strain cultured overnight in YPD medium at 30° C. and 200 rpm was further added to each well, the absorbance at 600 nm was measured using a plate reader at 33° C. for 24 hours or more at 15-minute intervals. The maximum specific growth rate and lag time were calculated using the Gompertz growth equation.

Row | Compound | cytotoxicity (maximum specific growth rate and lag time, Gompertz growth equation)
1 | CCCCCCCCCCCCOCCCCCCCCCCCC [Didodecyl ether, didodecyl ether] | almost no cytotoxicity
2 | CCCCCCCCOCCCCCCCC [Dioctyl ether, dioctyl ether] | almost no cytotoxicity
